Data as given in publication PMC11969009 (Nature Communications, 2025).
Several values for one entry are separate records, joined by “and”; a condition that tells them apart may be missing. Identical values can stand only once. Like-named read-outs stand apart in the source and are kept apart here.

How the values were obtained:
CYP2B6 = CYP2B6 (Homo sapiens, UniProt P20813); assay: biochemical
CYP3A4/5 [1] = conditions: human, microsomes, pH 7.4
CYP3A4/5 [2] = conditions: human, microsomes
CYP3A4/5 [3] = assay: in vitro; conditions: human, microsomes, pH 7.4, CYP3A4/5 IC50
CYP3A4/5 [4] = assay: in vitro; conditions: human, microsomes
[5] = test system: SARS-CoV-2 clinical isolate VIC001; assay: microbe, parasite or virus in culture; assay type: cell-based; conditions: for EC50: Severe acute respiratory syndrome coronavirus 2, Vero
SARS-CoV-2 P2 strain = test system: SARS-CoV-2 P2 strain; design: species or system C57BL/6 (WT) mice; conditions: mouse, in vivo
SARS-CoV-2 PLpro [6] = biological target: T1, SARS-CoV-2 PLpro (Severe acute respiratory syndrome coronavirus 2, UniProt P0DTD1); assay: biochemical; design: inhibition of SARS-CoV-2 PLpro, UbRh dose-response replicate value: unit: %; conditions: for IC50: IC50 (UbRh) SARS-CoV-2 PLpro
SARS-CoV-2 PLpro [7] = biological target: T1, SARS-CoV-2 PLpro; assay: cell-based; assay type: cell-based
SARS-CoV-2 PLpro [8] = biological target: T1, SARS-CoV-2 PLpro
CYP2C8 = CYP2C8 (Homo sapiens, UniProt P10632); conditions: microsomes
Chain of CYP2C8 (P10632 whole entry): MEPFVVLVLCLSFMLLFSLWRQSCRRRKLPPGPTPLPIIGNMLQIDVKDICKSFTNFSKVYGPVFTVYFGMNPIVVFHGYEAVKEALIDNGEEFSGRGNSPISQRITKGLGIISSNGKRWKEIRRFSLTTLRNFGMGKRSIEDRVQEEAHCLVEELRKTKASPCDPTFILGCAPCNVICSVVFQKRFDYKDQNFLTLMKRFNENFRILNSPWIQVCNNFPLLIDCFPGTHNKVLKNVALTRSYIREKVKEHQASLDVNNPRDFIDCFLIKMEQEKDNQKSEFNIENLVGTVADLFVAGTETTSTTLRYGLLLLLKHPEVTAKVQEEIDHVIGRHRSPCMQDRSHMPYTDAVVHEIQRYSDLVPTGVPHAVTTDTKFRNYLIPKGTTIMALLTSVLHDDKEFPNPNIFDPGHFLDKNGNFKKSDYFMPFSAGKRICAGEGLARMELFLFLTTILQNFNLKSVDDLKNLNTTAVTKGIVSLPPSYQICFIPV

[9] = read-out: Antiviral EC50 (plaque assay)

Chain of CYP2B6 (P20813 whole entry): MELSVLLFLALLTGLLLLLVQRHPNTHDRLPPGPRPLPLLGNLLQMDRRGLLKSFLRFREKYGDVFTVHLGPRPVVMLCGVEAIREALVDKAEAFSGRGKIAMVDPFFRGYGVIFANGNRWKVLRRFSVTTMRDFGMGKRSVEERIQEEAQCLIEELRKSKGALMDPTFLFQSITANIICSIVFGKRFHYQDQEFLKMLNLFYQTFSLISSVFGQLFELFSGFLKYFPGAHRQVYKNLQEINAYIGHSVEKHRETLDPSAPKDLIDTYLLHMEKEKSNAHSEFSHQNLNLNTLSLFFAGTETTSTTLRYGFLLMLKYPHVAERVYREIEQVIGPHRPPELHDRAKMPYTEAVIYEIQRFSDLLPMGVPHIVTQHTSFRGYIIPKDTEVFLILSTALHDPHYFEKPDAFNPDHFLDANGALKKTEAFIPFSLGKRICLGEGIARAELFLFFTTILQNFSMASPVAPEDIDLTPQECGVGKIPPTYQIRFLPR

Q: `CC(C)(c1ccccc1)N1CCCCC1` [2-phenyl-2-(1-piperidinyl) propane, reference compound] was tested. Which IC50 (CYP2B6) did it give?
A: The IC50 was 8.9 µM.

Q: What does the source list for `CC(=O)N1CCN(c2ccc(OCC3COC(Cn4ccnc4)(c4ccc(Cl)cc4Cl)O3)cc2)CC1` (stereo not drawn) [Ketoconazole, reference compound]?
A: IC50 (CYP3A4/5 [1]): 11 nM; Fold Shift IC50 (-NADPH) / IC50 (+NADPH) (CYP3A4/5 [2]): 0.68; IC50 (CYP3A4/5 [2]): 8.4 nM; IC50 (CYP3A4/5 [3]): 10 nM; IC50 shift (CYP3A4/5 [4]; Fold Shift IC50 (-NADPH) / IC50 (+NADPH)): 0.8; IC50 (CYP3A4/5 [4]; Time dependent CYP3A4/5 IC50 + NADPH): 16 nM; IC50 (CYP3A4/5 [4]; Time dependent CYP3A4/5 IC50 - NADPH): 13 nM

Q: With `CC(C)(C)[C@H](NC(=O)C(F)(F)F)C(=O)N1C[C@H]2[C@@H]([C@H]1C(=O)N[C@H](C#N)C[C@@H]1CCNC1=O)C2(C)C` [Nirmatrelvir, nirmatrelvir, reference compound] as the compound, how does the EC50 [5, 9] read?
A: The EC50 was greater than 2000 nM.

Q: What about the EC50 ([5]; read-out: Antiviral EC50 (plaque assay) with Pgp inhibitor) of the same compound?
A: Its EC50 is 530 nM.

Q: And the “Ext Data Fig 2f dose response (0 µM = 100)” value (shortened to “Ext Data Fig 2f dose response”) ([5]; concentration 0.01 µM)?
A: Its value is 108.0460 and 101.2658 and 103.7975 and 95.0617 and 93.8272 and 95.6522.

Q: And the “Ext Data Fig 2f dose response” value ([5]; concentration 0.02 µM)?
A: Its value is 90.8046 and 108.8608 and 111.3924 and 104.9383 and 98.7654 and 104.3478.

Q: What about the “Ext Data Fig 2f dose response” value ([5]; concentration 0.04 µM) of the same compound?
A: Its value is 97.7011 and 96.2025 and 105.0633 and 97.5309 and 90.1235 and 85.5072.

Q: And the “Ext Data Fig 2f dose response” value ([5]; concentration 0.08 µM)?
A: The value was 93.1034 and 89.8734 and 106.3291 and 109.8765 and 100.0000 and 102.8986.

Q: What about the “Ext Data Fig 2f dose response” value ([5]; concentration 0.3 µM) of the same compound?
A: The value was 104.5977 and 108.8608 and 102.5316 and 58.0247 and 83.9506 and 71.0145.

Q: What about the “antiviral activity (lung viral burden), mild model” value (SARS-CoV-2 P2 strain) of the same compound?
A: The value was “no antiviral activity”.

Q: How did the “IC50 (UbRh) SARS-CoV-2 PLpro” value (SARS-CoV-2 PLpro [6]) turn out when `CO/N=C(/c1ccc2cc(OC)ccc2c1)C1CCCN(C2CCCC2)C1` (stereo not drawn) [WEHI-P2] was run?
A: Its value is “submicromolar”.

Q: And the “inhibition of SARS-CoV-2 PLpro, UbRh dose-response replicate value” (“inhibition of SARS-CoV-2 PLpro” for short) (SARS-CoV-2 PLpro [6]; Conc 0.00498 µM)?
A: The value was -15.8303 and -11.7404 and -10.1452 and -13.4396 and 0.4248 and 3.42 and -8.071 and -0.3979.

Q: And the “inhibition of SARS-CoV-2 PLpro” value (SARS-CoV-2 PLpro [6]; Conc 0.0149 µM)?
A: The value was -13.9221 and -7.6283 and -8.496 and -15.6937 and -2.169 and 1.092 and -11.0387 and -1.093.

Q: What about the “inhibition of SARS-CoV-2 PLpro” value (SARS-CoV-2 PLpro [6]; Conc 0.0448 µM) of the same compound?
A: The value was -10.8825 and -7.692 and -10.0063 and -17.0131 and 5.235 and 6.569 and -0.8163 and 5.0409.

Q: And the “inhibition of SARS-CoV-2 PLpro” value (SARS-CoV-2 PLpro [6]; Conc 3.63 µM)?
A: Its value is 108.558 and 106.946 and 112.788 and 102.006 and 101.573 and 101.518 and 102.655.

Q: And the inhibition at 3.63 µM (SARS-CoV-2 PLpro [6]; Conc 3.63 µM, read-out: inhibition of SARS-CoV-2 PLpro, UbRh dose-response replicate value)?
A: Its inhibition at 3.63 µM is 110%.

Q: And the “inhibition of SARS-CoV-2 PLpro” value (SARS-CoV-2 PLpro [6]; Conc 98 µM)?
A: The value was 126.525 and 125.26 and 122.237 and 129.703 and 110.886 and 110.306 and 111.038 and 109.523.

Q: And the “inhibition of SARS-CoV-2 PLpro” value (SARS-CoV-2 PLpro [6]; Conc […])?
A: The value was 108.844.

Q: What about the IC50 (SARS-CoV-2 PLpro [6]) of the same compound?
A: The IC50 was 397 nM.

Q: What about the IC50 (SARS-CoV-2 PLpro [6]; Supplementary Fig. 2b) of the same compound?
A: The IC50 was 645 nM.

Q: What about the inhibition at […] (SARS-CoV-2 PLpro [6]; read-out: inhibition of SARS-CoV-2 PLpro, UbRh dose-response replicate value) of the same compound?
A: The inhibition at […] was 127% and 123% and 74.5%.

Q: And the EC50 (SARS-CoV-2 PLpro [7])?
A: The EC50 was 11 µM.

Q: What about the “FRET EC50 (cellular)” value (SARS-CoV-2 PLpro [7]) of the same compound?
A: Its value is “micromolar cellular activity”.

Q: What about the EC50 [5, 9] of the same compound?
A: The EC50 was greater than 2000 nM.

Q: And the “Molar Mass (kDa)” value (SARS-CoV-2 PLpro [8])?
A: The value was 34.0141 kDa and 34.3179 kDa and 34.334 kDa.

Q: What about the “observed molar mass of PLpro (SEC-MALS)” value (SARS-CoV-2 PLpro [8]) of the same compound?
A: Its value is 34.2 kDa.

Q: How did the IC50 (CYP2C8) turn out when quercitin [reference compound] was run?
A: The IC50 was 2300 nM.
